Results reported in patent US10206902B2, “Mono- or di-substituted indoles as dengue viral replication inhibitors” (priority 2014, dated 2019).

Assays:
DENV-2 16681 strain = test: DENV-2 antiviral assay (eGFP-labelled virus in Vero cells); type: cell-based, Dengue virus; conditions: DENV-2 16681 eGFP, MOI 0.5, 3 days
Experimental: The antiviral activity of all the compounds of the invention was tested against DENV-2 16681 strain which was labeled with enhanced green fluorescent protein (eGPF). The culture medium consists of minimal essential medium supplemented with 2% of heat-inactivated fetal calf serum, 0.04% gentamycin (50 mg/mL) and 2 mM of L-glutamine. Vero cells, obtained from ECACC, were suspended in culture medium and 25 μL was added to 384-well plates (2500 cells/well), which already contain the antiviral compounds. Typically, these plates contain a 4-fold serial dilution of 9 dilution steps of the test compound at 200 times the final concentration in 100% DMSO (200 nL). In addition, each compound concentration is tested in quadruplicate (final concentration range: 25 μM-0.00038 μM). Finally, each plate contains wells which are assigned as virus controls (containing cells and virus in the absence of compound), cell controls (containing cells in the absence of virus and compound) and medium controls (containing medium in the absence of cells, virus and compounds). To the wells assigned as medium control, 25 μL of culture medium was added instead of Vero cells. Once the cells were added to the plates, the plates were incubated for 30 minutes at room temperature to allow the cells to distribute evenly within the wells. Next, the plates were incubated in a fully humidified incubator (37° C., 5% CO2) until the next day. Then, DENV-2 strain 16681, labeled with eGFP, was added at a multiplicity of infection (MOI) of 0.5. Therefore, 15 μL of virus suspension was added to all the wells containing test compound and to the wells assigned as virus control. In parallel, 15 μL of culture medium was added to the medium and cell controls. Next, the plates were incubated for 3 days in a fully humidified incubator (37° C., 5% CO2). At the day of the read out, the eGFP fluorescence was measured using an automated fluorescence microscope at 488 nm (blue laser). Using an in-house LIMS system, inhibition dose response curves for each compound were calculated and the half maximal effective concentration (EC50) was determined. Therefore, the percent inhibition (I) for every test concentration is calculated using the following formula: I=100*(ST−SCC)/(SVC−SCC); ST, SCC and SVC are the amount of eGFP signal in the test compound, cell control and virus control wells, respectively. The EC50 represents the concentration of a compound at which the virus replication is inhibited with 50%, as measured by a 50% reduction of the eGFP fluorescent intensity compared to the virus control. The EC50 is calculated using linear interpolation (Table 1).

in vitro = type: cell-based; conditions: African green monkey, CC50
Experimental: (§1) In parallel, the toxicity of the compounds was assessed on the same plates. Once the read-out for the eGFP signal was done, 10 μL of resazurin, a cell viability stain, was added to all wells of the 384-well plates. The resazurin assay is based on the reduction of the blue resazurin by NADH, produced by the cells, into the highly fluorescent product, resorufin. The formation of pink fluorescent resorufin is directly related to the number of viable cells in the well. The plates were incubated for an additional 5 hours in a fully humidified incubator (37° C., 5% CO2). Next, the plates were measured on an Infinite reader (Tecan) using an excitation wavelength of 530 nm. The half maximal cytotoxic concentration (CO50) was also determined, defined as the concentration required to reduce the resazurin conversion by 50% compared to that of the cell control wells (Table 1). Finally, the selectivity index (SI) was determined for the compounds, which was calculated as followed: SI=CC50/EC50.

Vero cells = test: in vitro; type: cell-based; conditions: African green monkey
Experimental: as §1

[1] = Dengue virus, DENV2, Vero, 72 h

| Compound | EC50 (DENV-2 16681 strain) | CC50 (in vitro) | EC50 (DENV-2 16681 strain; [1]) | CC50 (Vero cells) |
| --- | --- | --- | --- | --- |
| COc1cc(NC(C(=O)c2c[nH]c3c(C)c(OC)ccc23)c2ccc(F)cc2OC)cc(OCCO)c1 (single isomer, unassigned) [Compound 11B, 2-(4-fluoro-2-methoxyphenyl)-2-((3-(2-hydroxyethoxy)-5-methoxyphenyl)amino)-1-(6-methoxy-7-methyl-1H-indol-3-yl)ethanone] | 410 nM | 12000 nM |  |  |
| COc1cc(NC(C(=O)c2c[nH]c3c(C)c(OC)ccc23)c2ccc(F)cc2OC)cc(OCCO)c1 (racemic) [Compound 11, 2-(4-fluoro-2-methoxyphenyl)-2-((3-(2-hydroxyethoxy)-5-methoxyphenyl)amino)-1-(6-methoxy-7-methyl-1H-indol-3-yl)ethanone] |  | 10000 nM | 2.4 nM |  |
| COc1cc(NC(C(=O)c2c[nH]c3cc(F)c(F)cc23)c2ccc(F)cc2OC)cc(OCCO)c1 (single isomer, unassigned) [Compound 10A, 1-(5,6-difluoro-1H-indol-3-yl)-2-(4-fluoro-2-methoxy-phenyl)-2-((3-(2-hydroxyethoxy)-5-methoxyphenyl)amino)ethanone] | 580 nM | 11000 nM |  |  |
| COc1cc(NC(C(=O)c2c[nH]c3cc(Cl)ccc23)c2ccc(F)cc2OC)cc(OCCO)c1 (single isomer, unassigned) [Compound 4B, 1-(6-chloro-1H-indol-3-yl)-2-(4-fluoro-2-methoxyphenyl)-2-((3-(2-hydroxyethoxy)-5-methoxyphenyl)amino)ethanone] | 380 nM | 7700 nM |  |  |
| COc1cc(NC(C(=O)c2c[nH]c3cc(F)c(F)cc23)c2ccc(F)cc2OC)cc(OCCO)c1 (racemic) [Compound 10, 1-(5,6-difluoro-1H-indol-3-yl)-2-(4-fluoro-2-methoxy-phenyl)-2-((3-(2-hydroxyethoxy)-5-methoxyphenyl)amino)ethanone] |  | 9300 nM | 6.8 nM |  |
| COc1cc(NC(C(=O)c2c[nH]c3c(Cl)c(OC)ccc23)c2ccc(F)cc2OC)cc(OCCO)c1 (single isomer, unassigned) [Compound 8B, 1-(7-chloro-6-methoxy-1H-indol-3-yl)-2-(4-fluoro-2-methoxyphenyl)-2-((3-(2-hydroxyethoxy)-5-methoxyphenyl)amino)ethanone] | 150 nM | 9100 nM |  |  |
| COc1cc(NC(C(=O)c2c[nH]c3c(F)cc(C)cc23)c2ccc(F)cc2OC)cc(OCCO)c1 (single isomer, unassigned) [Compound 12A, 2-(4-fluoro-2-methoxyphenyl)-1-(7-fluoro-5-methyl-1H-indol-3-yl)-2-((3-(2-hydroxyethoxy)-5-methoxyphenyl)amino)ethanone] | 930 nM | 9200 nM |  |  |
| COc1cc(NC(C(=O)c2c[nH]c3c(C)c(F)ccc23)c2ccc(F)cc2OC)cc(OCCO)c1 (single isomer, unassigned) [Compound 2A, 2-(4-fluoro-2-methoxyphenyl)-1-(6-fluoro-7-methyl-1H-indol-3-yl)-2-((3-(2-hydroxyethoxy)-5-methoxyphenyl)amino)ethanone] | 660 nM | 5400 nM |  |  |
| COc1cc(NC(C(=O)c2c[nH]c3c(F)c(F)ccc23)c2ccc(F)cc2OC)cc(OCCO)c1 (racemic) [Compound 5, 1-(6,7-difluoro-1H-indol-3-yl)-2-(4-fluoro-2-methoxyphenyl)-2-((3-(2-hydroxyethoxy)-5-methoxyphenyl)amino)ethanone] |  | 5200 nM | 8.9 nM |  |
| COc1cc(NC(C(=O)c2c[nH]c3c(Cl)c(OC)ccc23)c2ccc(F)cc2OC)cc(OCCO)c1 (racemic) [Compound 8, 1-(7-chloro-6-methoxy-1H-indol-3-yl)-2-(4-fluoro-2-methoxyphenyl)-2-((3-(2-hydroxyethoxy)-5-methoxyphenyl)amino)ethanone] |  | 6800 nM | 3.9 nM |  |
| COc1cc(NC(C(=O)c2c[nH]c3c(C)c(Cl)ccc23)c2ccc(F)cc2OC)cc(OCCO)c1 (single isomer, unassigned) [Compound 3B, 1-(6-chloro-7-methyl-1H-indol-3-yl)-2-(4-fluoro-2-methoxyphenyl)-2-((3-(2-hydroxyethoxy)-5-methoxyphenyl)amino)ethanone] | 180 nM | 5800 nM |  |  |
| COc1cc(NC(C(=O)c2c[nH]c3cc(OC)c(F)cc23)c2ccc(F)cc2OC)cc(OCCO)c1 (racemic) [Compound 7, 2-(4-fluoro-2-methoxyphenyl)-1-(5-fluoro-6-methoxy-1H-indol-3-yl)-2-((3-(2-hydroxyethoxy)-5-methoxyphenyl)amino)ethanone] |  | > 9700 nM | 14 nM |  |
| COc1cc(NC(C(=O)c2c[nH]c3cc(F)ccc23)c2ccc(F)cc2OC)cc(OCCO)c1 (single isomer, unassigned) [Compound 1B, 1-(6-fluoro-1H-indol-3-yl)-2-(4-fluoro-2-methoxyphenyl)-2-((3-(2-hydroxyethoxy)-5-methoxyphenyl)amino)ethanone] | 660 nM | 12000 nM |  |  |
| COc1cc(NC(C(=O)c2c[nH]c3c(C)c(Cl)ccc23)c2ccc(F)cc2OC)cc(OCCO)c1 (racemic) [Compound 3, 1-(6-chloro-7-methyl-1H-indol-3-yl)-2-(4-fluoro-2-methoxyphenyl)-2-((3-(2-hydroxyethoxy)-5-methoxyphenyl)amino)ethanone] |  | 6300 nM | 2.1 nM |  |
| COc1cc(NC(C(=O)c2c[nH]c3c(F)c(F)ccc23)c2ccc(F)cc2OC)cc(OCCO)c1 (single isomer, unassigned) [Compound 5A, 1-(6,7-difluoro-1H-indol-3-yl)-2-(4-fluoro-2-methoxyphenyl)-2-((3-(2-hydroxyethoxy)-5-methoxyphenyl)amino)ethanone] | 440 nM | 7400 nM |  |  |
| COc1cc(NC(C(=O)c2c[nH]c3cc(F)ccc23)c2ccc(F)cc2OC)cc(OCCO)c1 (racemic) [Compound 1, 1-(6-fluoro-1H-indol-3-yl)-2-(4-fluoro-2-methoxyphenyl)-2-((3-(2-hydroxyethoxy)-5-methoxyphenyl)amino)ethanone] |  | 11000 nM | 8 nM |  |
| COc1cc(NC(C(=O)c2c[nH]c3c(C)c(F)ccc23)c2ccc(F)cc2OC)cc(OCCO)c1 (racemic) [Compound 2, 2-(4-fluoro-2-methoxyphenyl)-1-(6-fluoro-7-methyl-1H-indol-3-yl)-2-((3-(2-hydroxyethoxy)-5-methoxyphenyl)amino)ethanone] |  | 7000 nM | 5.4 nM |  |
| COc1cc(NC(C(=O)c2c[nH]c3c(C)cc(F)cc23)c2ccc(F)cc2OC)cc(OCCO)c1 (single isomer, unassigned) [Compound 9A, 2-(4-fluoro-2-methoxyphenyl)-1-(5-fluoro-7-methyl-1H-indol-3-yl)-2-((3-(2-hydroxyethoxy)-5-methoxyphenyl)amino)ethanone] | 630 nM | 8800 nM |  |  |
| COc1cc(NC(C(=O)c2c[nH]c3cc(OC)c(F)cc23)c2ccc(F)cc2OC)cc(OCCO)c1 (single isomer, unassigned) [Compound 7B, 2-(4-fluoro-2-methoxyphenyl)-1-(5-fluoro-6-methoxy-1H-indol-3-yl)-2-((3-(2-hydroxyethoxy)-5-methoxyphenyl)amino)ethanone] | 540 nM |  |  | 14000 nM |
| COc1cc(NC(C(=O)c2c[nH]c3cc(OC)c(C)cc23)c2ccc(F)cc2OC)cc(OCCO)c1 (single isomer, unassigned) [Compound 6B, 2-(4-fluoro-2-methoxyphenyl)-2-((3-(2-hydroxyethoxy)-5-methoxyphenyl)amino)-1-(6-methoxy-5-methyl-1H-indol-3-yl)ethanone] | 290 nM |  |  | 9600 nM |
